Measurements published in patent US20060094059A1, “Methods for identifying new drug leads and new therapeutic uses for known drugs” (Odyssey Thera, Inc., priority 2004, published 2006).
pIC50: −log10 of the molar value.

Key:
[1] = system: colon adenocarcinoma (LoVo) cells; assay: MTT proliferation assay, colon; assay type: cell-based, Human; settings: Homo sapiens, Tumor Cell Colon (LoVo), 120 hours, read-out: Anti-proliferative IC-50
Method: (§1) Cells were maintained in various media as follows: A549, LoVo and PC-3 (Ham's F12K medium with 2 mM L-glutamine and 1.5 g/L sodium bicarbonate), MIA PaCa-2 (Dulbecco's modified Eagle's medium with 4 mM L-glutamine and 4.5 g/L glucose), U87-MG (MEM+Earle's BSS). Medium for each cell line was supplemented with 10% FBS and […] Penecillin/Streptomycin. All cells were grown in incubators set at 37° C., 5% CO2. Thiazolyl Blue Tetrazolium Bromide (MTT) based proliferation assays were performed to assess the anti-proliferative activities of the compounds on these cells. Cells were seeded in 96 well plates at a density of 750 cells/well 24 hours prior to compound treatment. The cells were incubated with varying concentrations of compounds for 120 hours. […] Drug treatment was performed in 5 replicate wells. Background absorbance was established by wells containing medium but no cells. Vehicle (DMSO) only was used as control. MTT (Sigma-Aldrich, St. Louis, Mo.) was added to each well at a final concentration of 0.5 mg/ml. Following a 2 hour incubation at 37° C., medium in the wells was replaced with 0.15 ml DMSO. The plates were agitated for 15 min using a microtiter plate shaker.

MAX:MYC = assay: Protein-fragment complementation assay MAX:MYC; assay type: cell-based, human; settings: hit in MYC/MAX assay; drugs screened at 10 micromolar
Source text: (§2) To construct dynamic assays for protein-protein complexes, we used a protein-fragment complementation assay strategy (PCAs) in intact human cells. (A variety of other suitable assays, and reporter options, are described in detail below.) The principle of PCA is that complementary polypeptide fragments (F[1] and F[2]) of a reporter protein or enzyme will fold into an active form only if fused to two proteins which interact and bring the complementary fragments of the reporter protein into proximity. Reconstitution of the fragments of the reporter protein generates a fluorescent signal that can be quantified in intact cells, and the amount of the signal is proportional to the amount of the protein-protein complex used in constructing the assay. Given a suitable reporter type, the subcellular location of the complex can also be measured.
(§3) Reporter fragments for PCA were generated by oligonucleotide synthesis (Blue Heron Biotechnology, Bothell, Wash.), starting with the sequence of yellow fluorescent protein (YFP). First, oligonucleotides coding for polypeptide fragments YFP[1]and YFP[2] […] Next, PCR mutagenesis was used to generate the mutant fragments IFP[1] and IFP[2]. The IFP[1] fragment corresponds to YFP[1]-(F46L, F64L, M153T) and the IFP[2] fragment corresponds to YFP[2]-(V163A, S175G). […]

[2] = system: pancreatic carcinoma (MIA PaCa-2) cells; assay: MTT proliferation assay, pancreatic; assay type: cell-based, Human; settings: Homo sapiens, Tumor Cell Pancreatic (MIA PaCa-2), 120 hours, read-out: Anti-proliferative IC-50
Method: as §1

HSP90:CDC37 = assay: Protein-fragment complementation assay Hsp90:CDC37; assay type: cell-based, human
Source text: as §2, §3

PIN1:JUN complexes = assay: Protein-fragment complementation assay PIN1:JUN; assay type: cell-based, human
Source text: as §2, §3

[3] = system: glioblastoma (U-87 MG) cells; assay: MTT proliferation assay, glioblastoma; assay type: cell-based; settings: Homo sapiens, Tumor Cell Glioblastoma (U-87 MG), 120 hours, read-out: Anti-proliferative IC-50
Method: as §1

HSP90:Eef2k = assay: Protein-fragment complementation assay Hsp90:Eef2k; assay type: cell-based, human
Source text: as §2
Reporter fragments for PCA were generated by oligonucleotide synthesis (Blue Heron Biotechnology, Bothell, Wash.), starting with the sequence of yellow fluorescent protein (YFP). First, oligonucleotides coding for polypeptide fragments YFP[1]and YFP[2] […] Next, PCR mutagenesis was used to generate the mutant fragments IFP[1] and IFP[2]. The IFP[1] fragment corresponds to YFP[1]-(F46L, F64L, M153T) and the IFP[2] fragment corresponds to YFP[2]-(V163A, S175G). […] The YFP[1], YFP[2], IFP[1] and IFP[2] fragments were amplified by PCR to incorporate restriction sites and a linker sequence, described below, in configurations that would allow fusion of a gene of interest to either the 5′- or 3′-end of each reporter fragment. The reporter-linker fragment cassettes were subcloned into a mammalian expression vector (pcDNA3.1Z, Invitrogen) that had been modified to incorporate the replication origin (oriP) of the Epstein Barr virus (EBV). […] Additionally, these vectors still retain the SV40 origin, allowing for episomal expression in cell lines expressing the SV40 large T antigen (e.g. HEK293T, Jurkat or COS). […]

pIC50 [1]: 6.35 | pIC50 [2]: 6.23 | pIC50 [3]: 6.09
Compound: O=C(Nc1ccc([N+](=O)[O-])cc1Cl)c1cc(Cl)ccc1O [Niclosamide]
Assay activity (MAX:MYC): MYC/MAX | level of HSP90:CDC37 complexes (intensity of the fluorescence) (HSP90:CDC37; FIG. 3D): decrease in the level | Assay activity (HSP90:CDC37; hit in HSP90/CDC37 assay, drugs screened at 10 micromolar): HSP90/CDC37, | level of PIN1:JUN complexes (intensity of the fluorescence) (PIN1:JUN complexes; FIG. 3A): decrease in the level | Assay activity (PIN1:JUN complexes; hit in PIN1/JUN assay, drugs screened at 10 micromolar): PIN1/JUN, | level of HSP90:Eef2k complexes (intensity of the fluorescence) (HSP90:Eef2k; FIG. 3D): decrease in the level | Assay activity (HSP90:Eef2k; hit in HSP90/Eef2k assay, drugs screened at 10 micromolar): HSP90/Eef2k,
